The values that follow come from patent US8889591B2, “Herbicidal compositions comprising 4-amino-3-chloro-5-fluoro-6-(4-chloro-2-fluoro-3-methoxyphenyl)pyridine-2-carboxylic acid or a derivative thereof and bromobutide, daimuron, oxaziclomefone or pyributicarb” (Dow Agrosciences LLC, priority 2012, dated 2014).

The test system of the assay is CYPRO. Put plainly: In-water applied greenhouse weed control, transplanted paddy rice system. Conditions: in-water application. It counts as in vivo, Cyperus rotundus L. The protocol:
Weed seeds or nutlets of the desired test plant species were planted in puddled soil (mud) prepared by mixing a shredded, non-sterilized mineral soil (50.5 percent silt, 25.5 percent clay, and 24 percent sand, with a pH of about 7.6 and an organic matter content of about 2.9 percent) and water at a 1:1 volumetric ratio. The prepared mud was dispensed in 365 mL aliquots into 16-ounce (oz.) non-perforated plastic pots with a surface area of 86.59 square centimeters (cm^2) leaving a headspace of 3 centimeters (cm) in each pot. Mud was allowed to dry overnight prior to planting or transplanting. Rice seeds were planted in Sun Gro MetroMix® 306 planting mixture, which typically has a pH of 6.0 to 6.8 and an organic matter content of about 30 percent, in plastic plug trays. Seedlings at the second or third leaf stage of growth were transplanted into 840 mL of mud contained in 32-oz. non-perforated plastic pots with a surface area of 86.59 cm^2 4 days prior to herbicide application. The paddy was created by filling the headspace of the pots with 2.5 to 3 cm of water. When required to ensure good germination and healthy plants, a fungicide treatment and/or other chemical or physical treatment was applied. The plants were grown for 4-22 days in a greenhouse with an approximate 14 h photoperiod which was maintained at about 29° C. during the day and 26° C. during the night. Nutrients were added as Osmocote® (19:6:12, N:P:K+ minor nutrients) at 2 g per 16-oz. pot and 4 g per 32-oz. pot. Water was added on a regular basis to maintain the paddy flood, and supplemental lighting was provided with overhead metal halide 1000-Watt lamps as necessary. The plants were employed for testing when they reached the first through fourth true leaf stage.
Treatments consisted of the acid or esters of 4-amino-3-chloro-5-fluoro-6-(4-chloro-2-fluoro-3-methoxy-phenyl)pyridine-2-carboxylic acid (compound A) each formulated as an SC and various herbicidal components alone and in combination. Forms of compound A were applied on an acid equivalent basis.
Other herbicidal components were applied on an active ingredient basis and included daimuron formulated as an EC, bromobutide (technical grade material), and oxaziclomefone (technical grade material).
Treatment requirements for each compound or herbicidal component were calculated based upon the rates being tested, the concentration of active ingredient or acid equivalent in the formulation, an application volume of 2 mL per component per pot, and an application area of 86.59 cm^2 per pot.
For formulated compounds, a measured amount was placed in an individual 100 or 200 mL glass vial and was dissolved in a volume of 1.25% (v/v) Agri-Dex® crop oil concentrate to obtain application solutions.
For technical grade compounds, a weighed amount was placed in an individual 100 to 200 mL glass vial and was dissolved in a volume of acetone to obtain concentrated stock solutions. […] The concentrated stock solutions obtained were diluted with an equivalent volume of an aqueous mixture containing 2.5% (v/v) crop oil concentrate so that the final application solutions contained 1.25% (v/v) crop oil concentrate.
Applications were made by injecting, with a pipetter, appropriate amounts of the application solutions, individually and sequentially, into the aqueous layer of the paddy. Control plants were treated in the same manner with the solvent blank. Applications were made so that all treated plant material received the same concentrations of acetone and crop oil concentrate.
The treated plants and control plants were placed in a greenhouse as described above and water was added as needed to maintain a paddy flood. After approximately 3 weeks the condition of the test plants as compared with that of the untreated plants was determined visually and scored on a scale of 0 to 100 percent where 0 corresponds to no injury or growth inhibition and 100 corresponds to complete kill. […]

Structures are written as SMILES.

As to `COc1c(Cl)ccc(-c2nc(C(=O)OCc3ccccc3)c(Cl)c(N)c2F)c1F` [Compound A Benzyl Ester], the “Visual Weed Control (%) - 19 DAA CYPRO Obs” value reads like this: (Compound A Benzyl Ester 8 gae/ha alone) 50%; (Compound A Benzyl Ester 16 gae/ha alone) 85%; (Compound A Benzyl Ester 32 gae/ha alone) 90%. For the same compound, where the note is “Compound A Benzyl Ester 8.75 gae/ha alone”, the “Visual Weed Control (%) - 21 DAA CYPRO Obs” value is 60%.
